Patent US12084430B2, “Tricyclic urea compounds as JAK2 V617F inhibitors” (Incyte Corporation, priority 2022, dated 2024)
Read-outs that look alike come from different tables or passages of the source.

Assays:
FLT3 = target: T1, FLT3 (Homo sapiens, UniProt P36888); experiment: FLT3 enzymatic assay; assay type: biochemical; conditions: 1 mM ATP
T1 sequence (P36888 27-993): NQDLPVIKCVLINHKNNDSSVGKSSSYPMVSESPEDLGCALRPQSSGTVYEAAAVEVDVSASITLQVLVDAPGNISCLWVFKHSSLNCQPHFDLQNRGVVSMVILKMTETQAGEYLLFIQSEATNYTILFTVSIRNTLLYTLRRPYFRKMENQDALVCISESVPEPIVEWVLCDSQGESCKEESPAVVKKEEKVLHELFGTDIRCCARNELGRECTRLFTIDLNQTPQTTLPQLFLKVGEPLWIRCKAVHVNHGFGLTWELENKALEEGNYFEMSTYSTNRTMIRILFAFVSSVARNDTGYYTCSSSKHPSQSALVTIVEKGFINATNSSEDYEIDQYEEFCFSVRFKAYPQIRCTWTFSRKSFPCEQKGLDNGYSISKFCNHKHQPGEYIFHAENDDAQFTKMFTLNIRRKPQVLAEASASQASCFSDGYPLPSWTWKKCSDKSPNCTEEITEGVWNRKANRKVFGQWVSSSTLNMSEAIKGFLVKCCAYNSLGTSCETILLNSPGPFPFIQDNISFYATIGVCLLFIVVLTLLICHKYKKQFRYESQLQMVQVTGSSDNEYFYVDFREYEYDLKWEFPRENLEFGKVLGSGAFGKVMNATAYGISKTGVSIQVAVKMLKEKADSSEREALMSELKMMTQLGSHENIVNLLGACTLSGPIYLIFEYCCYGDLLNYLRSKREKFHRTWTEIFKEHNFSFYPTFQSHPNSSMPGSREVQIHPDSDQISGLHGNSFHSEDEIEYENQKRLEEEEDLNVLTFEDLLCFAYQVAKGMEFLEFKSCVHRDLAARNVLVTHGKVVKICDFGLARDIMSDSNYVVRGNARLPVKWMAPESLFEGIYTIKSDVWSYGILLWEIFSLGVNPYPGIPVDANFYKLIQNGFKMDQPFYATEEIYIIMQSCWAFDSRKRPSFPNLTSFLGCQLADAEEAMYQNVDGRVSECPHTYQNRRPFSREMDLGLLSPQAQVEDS
Outline: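 Kinase reaction at room temperature in HEPES 50 mM pH 7.0 with 10 mM MgCl2, 1 mM DTT: 0.011 nM FLT3, 1 mM ATP, 500 nM biotinylated TK substrate, 0.5% DMSO. After 60 min, HTRF read as 665/620 nm ratio; IC50 from fit of percent control activity versus log concentration.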

[1] = target: T2, pseudo-kinase domain (JH2) of human V617F mutant JAK2 (Homo sapiens, UniProt O60674, F794H/V617F/W659A/W777A); experiment: JAK2 LanthaScreen JH2-V617F binding assay; conditions: read-out: JH2 V617F Bind IC50
T2 construct: pseudo-kinase domain (JH2, amino-acids 536-812 with 3 surface mutations W659A, W777A, F794H); His (C); purchased BPS Bioscience 79498; host or cells: baculovirus expression system
Protocol: Example B. JAK2 LanthaScreen JH2-V617F Binding Assay
JAK2 JH2-V617F binding assay utilizes pseudo-kinase domain (JH2, amino-acids 536-812 with 3 surface mutations W659A, W777A, F794H) of human V617F mutant JAK2 expressed as C-terminal His-Avi-tagged, biotinylated protein in a baculovirus expression system (BPS Bioscience, Catalog #79498). The assay was conducted in black 384-well polystyrene plates in a final reaction volume of 20 μL. JAK2 JH2-V617F (0.26 nM) was incubated with compounds (100 nL serially diluted in DMSO) in the presence of 50 nM Fluorescent JAK2-JH2 Tracer (MedChem Express Catalog #HY-102055) and 0.25 nM Streptavidin-Tb cryptate (Cisbio Part #610SATLB) in assay buffer (50 mM Tris, pH=7.5, 10 mM MgCl2, 0.01% Brij-35, 0.1% BSA, 1 mM EGTA, 5% Glycerol and 5 mM DTT). Non-specific binding was accessed in the presence of 2 mM ATP. After incubation for 1 hour at 25° C., LanthaScreen signals were read on a PHERAstar FS plate reader (BMG LABTECH). Data was analyzed with IDBS XLfit and GraphPad Prism 5.0 software using a four parameter dose response curve to determine IC50 for each compound.

[2] = target: T3, catalytic domain (JH1, amino acids 826-1132) of human JAK2 (Homo sapiens, UniProt O60674); experiment: JAK2 LanthaScreen JH1 binding assay; conditions: read-out: JH1 Bind IC50
T3 construct: catalytic domain (JH1, amino acids 826-1132) of human JAK2; FLAG (N); biotin (biotinylated); purchased Carna Biosciences 08-445-20N; host or cells: baculovirus expression system
Protocol: Example A. JAK2 LanthaScreen […] Binding Assay
JAK2 JH1 binding assay utilizes catalytic domain (JH1, amino acids 826-1132) of human JAK2 expressed as N-terminal FLAG-tagged, biotinylated protein in a baculovirus expression system (Carna Biosciences, Product #08-445-20N). The assay was conducted in black 384-well polystyrene plates in a final reaction volume of 20 μL. JAK2 JH1 (1.5 nM) was incubated with compounds (100 nL serially diluted in DMSO) in the presence of 50 nM fluorescent JAK2-JH1 tracer and 0.5 nM Streptavidin-Tb cryptate (Cisbio Part #610SATLB) in assay buffer (50 mM Tris, pH=7.5, 10 mM MgCl2, 0.01% Brij-35, 0.1% BSA, 1 mM EGTA, 5% Glycerol and 5 mM DTT). Non-specific binding was accessed in the presence of 2 mM ATP. After incubation for 2 hours at 25° C., LanthaScreen signals were read on a PHERAstar FS plate reader (BMG LABTECH). Data was analyzed with IDBS XLfit and GraphPad Prism 5.0 software using a four parameter dose response curve to determine IC50 for each compound.

T2 sequence (O60674 536-812 V617F/W659A/W777A/F794H): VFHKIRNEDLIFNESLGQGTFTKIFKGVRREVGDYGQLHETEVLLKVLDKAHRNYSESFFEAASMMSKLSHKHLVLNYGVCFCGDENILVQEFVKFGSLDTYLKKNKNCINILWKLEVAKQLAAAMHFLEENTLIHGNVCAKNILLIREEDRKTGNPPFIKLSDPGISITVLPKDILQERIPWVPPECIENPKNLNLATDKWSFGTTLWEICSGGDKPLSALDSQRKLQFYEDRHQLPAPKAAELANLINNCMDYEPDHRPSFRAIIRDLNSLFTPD
T3 sequence (O60674 826-1132): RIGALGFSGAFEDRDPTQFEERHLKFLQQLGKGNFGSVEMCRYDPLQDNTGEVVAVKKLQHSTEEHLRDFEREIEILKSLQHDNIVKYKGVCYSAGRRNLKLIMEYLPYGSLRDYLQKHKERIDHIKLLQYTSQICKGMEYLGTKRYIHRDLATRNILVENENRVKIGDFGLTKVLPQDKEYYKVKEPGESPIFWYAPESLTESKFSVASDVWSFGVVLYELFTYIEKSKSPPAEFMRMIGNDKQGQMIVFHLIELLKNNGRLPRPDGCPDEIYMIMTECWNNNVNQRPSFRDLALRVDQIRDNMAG

| SMILES | IC50 (FLT3) [nM] | IC50 ([1]; Table A) [nM] | IC50 ([1]; Table C) [nM] | IC50 ([2]; Table A) [nM] | IC50 ([2]; Table C) [nM] |
| --- | --- | --- | --- | --- | --- |
| [2H]C([2H])([2H])n1cc(-c2[nH]c3ncc4c(c3c2-c2cc(F)c3c(cnn3C([2H])([2H])[2H])c2)n([C@@H]2CC[C@@H](NC(=O)OC)C2)c(=O)n4C([2H])([2H])[2H])c(F)n1 [Example 17, Methyl ((1R,3R)-3-(8-(7-fluoro-1-(methyl-d3)-1H-indazol-5-yl)-7-(3-fluoro-1-(methyl-d3)-1H-pyrazol-4-yl)-3-(methyl-d3)-2-oxo-3,6-dihydroimidazo[4,5-d]pyrrolo[2,3-b]pyridin-1(2H)-yl)cyclopentyl)carbamate] | 1250 to 2500 | ≤ 10 | ≤ 10 | > 1000 | > 1000 |
| [2H]C([2H])([2H])n1cc(-c2[nH]c3ncc4c(c3c2-c2ccc3c(cnn3CC(F)F)c2)n([C@@H]2CC[C@@H](NC(=O)OC)C2)c(=O)n4C)c(F)n1 [Example 18, Methyl ((1R,3R)-3-(8-(1-(2,2-difluoroethyl)-1H-indazol-5-yl)-7-(3-fluoro-1-(methyl-d3)-1H-pyrazol-4-yl)-3-methyl-2-oxo-3,6-dihydroimidazo[4,5-d]pyrrolo[2,3-b]pyridin-1(2H)-yl)cyclopentyl)carbamate] | 1250 to 2500 | ≤ 10 | ≤ 10 | > 1000 | > 1000 |
| [2H]C([2H])([2H])n1c(=O)n([C@@H]2CC[C@@H](NC(=O)OC)C2)c2c3c(-c4ccc5c(c4)COC5(C)C)c(-c4cn(C([2H])([2H])C([2H])([2H])[2H])nc4F)[nH]c3ncc21 [Example 19, Methyl ((1R,3R)-3-(8-(1,1-dimethyl-1,3-dihydroisobenzofuran-5-yl)-7-(1-(ethyl-d5)-3-fluoro-1H-pyrazol-4-yl)-3-(methyl-d3)-2-oxo-3,6-dihydroimidazo[4,5-d]pyrrolo[2,3-b]pyridin-1(2H)-yl)cyclopentyl)carbamate] | > 2500 | ≤ 10 | ≤ 10 | > 1000 | > 1000 |
| [2H]C([2H])([2H])n1c(=O)n([C@@H]2CC[C@@H](NC(=O)OC)C2)c2c3c(-c4ccc5c(c4)COC5(C)C)c(-c4cn(CC)nc4F)[nH]c3ncc21 [Example 20, Methyl ((1R,3R)-3-(8-(1,1-dimethyl-1,3-dihydroisobenzofuran-5-yl)-7-(1-ethyl-3-fluoro-1H-pyrazol-4-yl)-3-(methyl-d3)-2-oxo-3,6-dihydroimidazo[4,5-d]pyrrolo[2,3-b]pyridin-1(2H)-yl)cyclopentyl)carbamate] | > 2500 | ≤ 10 | ≤ 10 | > 1000 | > 1000 |
| [2H]C([2H])([2H])n1ncc2cc(-c3c(-c4cn(C([2H])(C([2H])([2H])[2H])C([2H])([2H])[2H])nc4F)[nH]c4ncc5c(c34)n([C@@H]3CC[C@@H](NC(=O)OC)C3)c(=O)n5C([2H])([2H])[2H])ccc21 [Example 21, Methyl ((1R,3R)-3-(7-(3-fluoro-1-(propan-2-yl-d7)-1H-pyrazol-4-yl)-3-(methyl-d3)-8-(1-(methyl-d3)-1H-indazol-5-yl)-2-oxo-3,6-dihydroimidazo[4,5-d]pyrrolo[2,3-b]pyridin-1(2H)-yl)cyclopentyl)carbamate] | 1250 to 2500 | ≤ 10 | ≤ 10 | > 1000 | > 1000 |
